Values belong to the molecule of their own block, whether it stands above or below them. Active and inactive are the calls of the source. The calls are words filed in the database; no cut-off is given here.
Experiments:
Glucocorticoid receptor = molecular target: T1, Glucocorticoid receptor (Homo sapiens, UniProt P04150); test: Antagonist activity at glucocorticoid receptor expressed in human A549 cells assessed as inhibition of corticoid-induced transcription by glucocorticoid response element-linked luciferase reporter gene assay; assay type: functional, cell-based
T1 sequence (P04150 whole entry): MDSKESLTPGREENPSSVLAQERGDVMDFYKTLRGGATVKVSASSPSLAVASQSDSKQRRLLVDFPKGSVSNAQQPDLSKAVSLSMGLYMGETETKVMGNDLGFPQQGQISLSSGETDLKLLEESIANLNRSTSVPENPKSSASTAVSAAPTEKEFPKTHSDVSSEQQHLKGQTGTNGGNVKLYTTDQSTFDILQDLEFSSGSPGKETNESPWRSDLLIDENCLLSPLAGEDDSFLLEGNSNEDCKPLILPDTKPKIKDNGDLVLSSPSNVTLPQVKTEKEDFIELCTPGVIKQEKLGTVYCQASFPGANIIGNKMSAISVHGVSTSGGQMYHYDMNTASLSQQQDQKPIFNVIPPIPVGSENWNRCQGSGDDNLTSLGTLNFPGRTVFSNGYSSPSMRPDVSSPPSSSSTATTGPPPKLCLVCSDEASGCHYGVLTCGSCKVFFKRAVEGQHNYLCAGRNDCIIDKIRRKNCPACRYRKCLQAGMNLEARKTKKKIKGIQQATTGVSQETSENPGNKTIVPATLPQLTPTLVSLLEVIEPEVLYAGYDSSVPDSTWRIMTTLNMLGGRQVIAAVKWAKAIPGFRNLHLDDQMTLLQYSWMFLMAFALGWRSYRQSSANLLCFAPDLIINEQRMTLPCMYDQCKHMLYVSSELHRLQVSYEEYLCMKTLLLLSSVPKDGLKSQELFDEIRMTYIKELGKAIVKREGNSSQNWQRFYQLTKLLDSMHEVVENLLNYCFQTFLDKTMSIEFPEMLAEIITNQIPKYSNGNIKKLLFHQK

Progesterone receptor = molecular target: T2, Progesterone receptor (Homo sapiens, UniProt P06401); test: Antagonist activity at progesterone receptor expressed in human T47 cells assessed as blockade of progesterone-induced alkaline phosphatase activity; assay type: functional, cell-based
T2 sequence (P06401 whole entry): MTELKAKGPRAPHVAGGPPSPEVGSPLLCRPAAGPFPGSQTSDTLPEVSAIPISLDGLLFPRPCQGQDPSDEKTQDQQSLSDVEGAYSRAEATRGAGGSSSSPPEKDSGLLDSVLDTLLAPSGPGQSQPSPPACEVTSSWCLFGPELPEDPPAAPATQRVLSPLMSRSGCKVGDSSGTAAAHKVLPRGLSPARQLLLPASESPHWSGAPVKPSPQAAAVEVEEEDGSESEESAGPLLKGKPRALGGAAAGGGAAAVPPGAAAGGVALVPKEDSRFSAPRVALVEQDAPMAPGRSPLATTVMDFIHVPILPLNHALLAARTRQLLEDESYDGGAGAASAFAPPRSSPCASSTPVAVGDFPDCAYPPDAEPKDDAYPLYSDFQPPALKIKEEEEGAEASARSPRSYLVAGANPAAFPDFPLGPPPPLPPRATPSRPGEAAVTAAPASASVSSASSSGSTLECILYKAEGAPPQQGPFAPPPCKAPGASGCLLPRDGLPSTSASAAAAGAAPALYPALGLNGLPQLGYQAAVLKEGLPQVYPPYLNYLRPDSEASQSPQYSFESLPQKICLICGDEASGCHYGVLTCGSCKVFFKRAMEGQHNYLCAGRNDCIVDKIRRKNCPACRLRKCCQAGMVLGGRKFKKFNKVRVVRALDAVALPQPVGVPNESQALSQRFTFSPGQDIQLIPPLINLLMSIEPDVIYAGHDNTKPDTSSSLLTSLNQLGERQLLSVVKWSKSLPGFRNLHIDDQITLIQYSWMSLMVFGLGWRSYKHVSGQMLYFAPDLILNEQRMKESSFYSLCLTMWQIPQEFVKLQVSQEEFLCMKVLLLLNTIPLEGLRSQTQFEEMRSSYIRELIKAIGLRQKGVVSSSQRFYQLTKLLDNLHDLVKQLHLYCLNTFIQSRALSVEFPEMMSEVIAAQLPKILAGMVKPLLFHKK

A549 = test: Selectivity index, Ratio of IC50 for progesterone receptor expressed in human T47 cells to IC50 for glucocorticoid receptor expressed in human A549 cells
[1] = Permeability across Caco-2 cells; assay type: ADME, cell-based; settings: human, read-out: permeability
[2] = Cmax in mouse at 2 mg/kg, iv; assay type: ADME, organism-based; parameters: dose 2 mg/kg, route intravenous; settings: in vivo
[3] = Cmax in mouse at 10 mg/kg, po; assay type: ADME, organism-based; parameters: dose 10 mg/kg, route oral; settings: in vivo
[4] = Clearance in mouse at 2 mg/kg, iv; assay type: ADME, organism-based; parameters: dose 2 mg/kg, route intravenous; settings: in vivo
[5] = Tmax in mouse at 2 mg/kg, iv; assay type: ADME, organism-based; parameters: dose 2 mg/kg, route intravenous; settings: in vivo
[6] = Tmax in mouse at 10 mg/kg, po; assay type: ADME, organism-based; parameters: dose 10 mg/kg, route oral; settings: in vivo
[7] = Half life in mouse at 2 mg/kg, iv; assay type: ADME, organism-based; parameters: dose 2 mg/kg, route intravenous; settings: in vivo
[8] = Half life in mouse at 10 mg/kg, po; assay type: ADME, organism-based; parameters: dose 10 mg/kg, route oral; settings: in vivo
[9] = Oral bioavailability in mouse at 10 mg/kg; assay type: ADME, organism-based; settings: in vivo
Mus musculus = test: Decrease in plasma glucose level in po dosed ob/ob mouse after 15 days by OGTT; assay type: functional, organism-based
[10] = Metabolic stability in human microsomes assessed as half life; assay type: ADME, Microsome
[11] = Metabolic stability in rat microsomes assessed as half life; assay type: ADME, Microsome
[12] = Metabolic stability in mouse microsomes assessed as half life; assay type: ADME, Microsome
[13] = Metabolic stability in dog microsomes assessed as half life; assay type: ADME, Canis lupus familiaris, Microsome
[14] = Metabolic stability in monkey microsomes assessed as half life; assay type: ADME, Macaca mulatta, Microsome; settings: rhesus monkey
[15] = Metabolic stability in rabbit microsomes assessed as half life; assay type: ADME, Oryctolagus cuniculus, Microsome
hERG (KCNH2) = hERG (KCNH2) (Homo sapiens, UniProt Q12809); test: Inhibition of hERG at 10 uM; assay type: toxicity
Sequence of hERG (KCNH2) (Q12809 whole entry): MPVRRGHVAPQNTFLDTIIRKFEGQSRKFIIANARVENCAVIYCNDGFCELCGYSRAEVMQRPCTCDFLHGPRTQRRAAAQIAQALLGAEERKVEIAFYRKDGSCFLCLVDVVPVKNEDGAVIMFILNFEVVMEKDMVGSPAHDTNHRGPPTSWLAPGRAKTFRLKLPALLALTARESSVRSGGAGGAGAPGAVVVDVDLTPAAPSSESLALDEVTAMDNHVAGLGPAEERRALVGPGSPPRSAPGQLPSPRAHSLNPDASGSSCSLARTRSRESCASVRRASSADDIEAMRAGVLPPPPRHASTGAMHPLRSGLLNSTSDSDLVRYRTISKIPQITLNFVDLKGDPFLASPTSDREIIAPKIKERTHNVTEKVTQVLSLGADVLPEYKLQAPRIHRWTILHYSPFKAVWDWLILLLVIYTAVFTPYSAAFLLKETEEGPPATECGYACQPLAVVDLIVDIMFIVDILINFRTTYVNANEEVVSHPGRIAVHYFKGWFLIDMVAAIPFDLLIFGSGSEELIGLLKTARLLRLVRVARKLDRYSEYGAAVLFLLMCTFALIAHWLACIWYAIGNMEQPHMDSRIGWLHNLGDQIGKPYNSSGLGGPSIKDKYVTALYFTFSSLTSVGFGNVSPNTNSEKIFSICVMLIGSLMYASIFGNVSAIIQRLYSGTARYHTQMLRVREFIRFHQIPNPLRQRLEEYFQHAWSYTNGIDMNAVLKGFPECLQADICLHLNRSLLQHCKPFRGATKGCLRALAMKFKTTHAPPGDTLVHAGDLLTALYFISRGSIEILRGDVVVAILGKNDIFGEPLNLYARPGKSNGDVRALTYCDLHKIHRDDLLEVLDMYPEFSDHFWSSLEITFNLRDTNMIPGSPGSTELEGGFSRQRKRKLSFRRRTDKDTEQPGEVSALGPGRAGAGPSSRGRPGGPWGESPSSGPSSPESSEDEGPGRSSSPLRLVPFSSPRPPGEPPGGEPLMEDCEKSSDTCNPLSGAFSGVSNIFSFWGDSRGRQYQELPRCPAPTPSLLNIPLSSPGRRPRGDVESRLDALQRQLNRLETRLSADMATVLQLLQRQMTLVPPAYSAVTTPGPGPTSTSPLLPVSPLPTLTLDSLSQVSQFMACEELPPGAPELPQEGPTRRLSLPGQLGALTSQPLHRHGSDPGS

SMILES: C=C1CCO[C@]12CC[C@H]1[C@@H]3CCC4=CC(=O)CCC4=C3[C@@H](c3ccc(P(=O)(OCC)OCC)cc3)C[C@@]12C
Ki (Glucocorticoid receptor): 56.3 nM
IC50 (Progesterone receptor): 9.9 nM
Ratio (A549): 0.17

SMILES: C=CC[C@]1(O)CC[C@H]2[C@@H]3CCC4=CC(=O)CCC4=C3[C@@H](c3ccc(P(=O)(OCC)OCC)cc3)C[C@@]21C
Ki (Glucocorticoid receptor): 10 nM
IC50 (Progesterone receptor): 308 nM
Papp [1]: 14.5 ×10⁻⁶ cm/s
Ratio (A549): 30.8

SMILES: CC#C[C@]1(O)CC[C@H]2[C@@H]3CCC4=CC(=O)CCC4=C3[C@@H](c3ccc(P(=O)(OCC)OCC)cc3)C[C@@]21C
Ki (Glucocorticoid receptor): 9 nM
IC50 (Progesterone receptor): 141 nM
Ratio (A549): 15.7

SMILES: C=C1CCO[C@]12CC[C@H]1[C@@H]3CCC4=CC(=O)CCC4=C3[C@@H](c3ccc(P(C)(=O)OCC)cc3)C[C@@]12C (stereo not given in full)
Ki (Glucocorticoid receptor): 59.8 nM
IC50 (Progesterone receptor): 1.6 nM
Ratio (A549): 0.027

SMILES: CC#C[C@]1(O)CC[C@H]2[C@@H]3CCC4=CC(=O)CCC4=C3[C@@H](c3ccc(P(=O)(c4ccccc4)c4ccccc4)cc3)C[C@@]21C
Ki (Glucocorticoid receptor): 3 nM
IC50 (Progesterone receptor): 381 nM
Ratio (A549): 127

Second part, led by results:

Ki (Glucocorticoid receptor): 20 nM
IC50 (Progesterone receptor): 275 nM
SMILES: C[C@]12C[C@H](c3ccc(P(=O)(c4ccccc4)c4ccccc4)cc3)C3=C4CCC(=O)C=C4CC[C@H]3[C@@H]1CC[C@@]2(O)c1ccccc1
Ratio (A549): 13.8

Cmax [2]: 2800 ng/mL
Cmax [3]: 30 ng/mL
clearance [4]: 115 mL/min/kg
Tmax [5]: 4.8 min
Tmax [6]: 1 h
half-life [7]: 240 min
half-life [8]: 168 min
bioavailability [9]: 31%
SMILES: CC#C[C@]1(O)CC[C@H]2[C@@H]3CCC4=CC(=O)CCC4=C3[C@@H](c3ccc(N(C)C)cc3)C[C@@]21C [MIFEPRISTONE]
Activity (Mus musculus): Active

Ki (Glucocorticoid receptor): > 3000 nM
IC50 (Progesterone receptor): > 1000 nM
SMILES: C=C1CCO[C@]12CC[C@H]1[C@@H]3CCC4=CC(=O)CCC4=C3[C@@H](c3ccc(P(=O)(O)OCC)cc3)C[C@@]12C

Ki (Glucocorticoid receptor): > 3000 nM
IC50 (Progesterone receptor): > 1000 nM
SMILES: C=C1CCO[C@]12CC[C@H]1[C@@H]3CCC4=CC(=O)CCC4=C3[C@@H](c3ccc(P(C)(=O)O)cc3)C[C@@]12C

IC50 (Glucocorticoid receptor): 10 nM
IC50 (Progesterone receptor): 101 nM
SMILES: CC#C[C@]1(O)CC[C@H]2[C@@H]3CCC4=CC(=O)CCC4=C3[C@@H](c3ccc(P(C)(C)=O)cc3)C[C@@]21C
Ratio (A549): 10.1

Ki (Glucocorticoid receptor): 10 nM
IC50 (Progesterone receptor): 763 nM
half-life [10]: > 30 min
half-life [11]: > 30 min
half-life [12]: 28 min
half-life [13]: 21 min
half-life [14]: 8 min
half-life [15]: 30 min
Cmax [2]: 5290 ng/mL
Cmax [3]: 1850 ng/mL
clearance [4]: 7.98 mL/min/kg
Tmax [5]: 4.8 min
Tmax [6]: 2 h
half-life [7]: 46.2 min
half-life [8]: 132 min
bioavailability [9]: 59%
Papp [1]: 2.6 ×10⁻⁶ cm/s
SMILES: C=CC[C@]1(O)CC[C@H]2[C@@H]3CCC4=CC(=O)CCC4=C3[C@@H](c3ccc(P(=O)(c4ccccc4)c4ccccc4)cc3)C[C@@]21C
inhibition at 10 µM (hERG (KCNH2)): 27.8%
Activity (Mus musculus): Active
Ratio (A549): 76.3
